≈ marks a conversion by molar mass, not a printed value. Like-named read-outs stand apart in the source and are kept apart here.
Tests used:
P. aeruginosa PAO1 = type: cell-based, Pseudomonas aeruginosa; conditions: PAO1, 18 h
Protocol: (§1) The in vitro antibacterial activity of the UTBLPs was assessed against wild-type and clinically isolated bacterial strains. To obtain the MIC of the compounds, the microbroth dilution susceptibility assay was performed according to the Clinical and Laboratory Standards Institute (CLSI, Wayne, PA, USA) guidelines and as previously described. Briefly, the compounds at varying concentrations were incubated with bacterial inoculum (5 × 10^5 CFU/mL final concentration) at 37 °C for 18 h. Growth in the form of turbidity was confirmed using an EMax Plus microplate reader (Molecular Devices, San Jose, CA, USA) at 590 nm.

E. coli ATCC 25922 [1] = type: cell-based, Escherichia coli; conditions: ATCC 25922, 18 h
Protocol: as §1

MRSA ATCC 33592 = type: cell-based, Staphylococcus aureus; conditions: ATCC 33592, 18 h
Protocol: as §1

S. aureus ATCC 29213 = type: cell-based, Staphylococcus aureus; conditions: ATCC 29213, 18 h
Protocol: as §1

[2] = tested on: P. aeruginosa PA259-96196; experiment: microbe, parasite or virus in culture; type: cell-based, Pseudomonas aeruginosa; conditions: PA259-96196, 18 h
Protocol: as §1

[3] = tested on: P. aeruginosa PA262-101856; experiment: microbe, parasite or virus in culture; type: cell-based, Pseudomonas aeruginosa; conditions: PA262-101856, 18 h
Protocol: as §1

E. coli 94393 [4] = experiment: microbe, parasite or virus in culture; type: cell-based, Escherichia coli; conditions: 94393, 18 h
Protocol: as §1

E. coli 94474 = experiment: microbe, parasite or virus in culture; type: cell-based, Escherichia coli; conditions: 94474, 18 h
Protocol: as §1

E. cloacae 118564 = experiment: microbe, parasite or virus in culture; type: cell-based, Enterobacter cloacae; conditions: 118564, 18 h
Protocol: as §1

K. pneumoniae 113250 = experiment: microbe, parasite or virus in culture; type: cell-based, Klebsiella pneumoniae; conditions: 113250, 18 h
Protocol: as §1

MRSE 61589 [5] = type: cell-based, Staphylococcus epidermidis; conditions: 61589, 18 h
Protocol: as §1

MSSE 81388 [6] = type: cell-based, Staphylococcus epidermidis; conditions: 18 h
Protocol: as §1

E. coli 94393 [7] = type: cell-based, Escherichia coli; conditions: for MICUTBLP: UTBLP alone
Procedure, shortened: (§2)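 Values derive from a two-agent checkerboard with an 18 h, 37 °C incubation. FICI cut-offs: ≤0.5 synergy, 0.5–4 additive, >4 antagonism.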

E. coli ATCC 25922 [8] = type: cell-based, Escherichia coli; conditions: for MICUTBLP: UTBLP alone
Procedure, shortened: as §2

MRSE 61589 [9] = type: cell-based, Staphylococcus epidermidis
Protocol: (§3) The synergy of the UTBLPs with various antibiotics was assessed using checkerboard assay as previously described. Briefly, the combination of antibiotic and OMP at varying concentrations were incubated with bacterial inoculum (5 × 10^5 CFU/mL final concentration) at 37 °C for 18 h. Growth in the form of turbidity was confirmed using an EMax Plus microplate reader (Molecular Devices, Union City, CA, USA) at 590 nm. Fractional inhibitory concentration index (FICI) was used to evaluate the interaction between the antibiotic and the OMP. FICI is the sum of the FIC of the antibiotic and the FIC of the OMP. The FIC value is calculated by dividing the MIC of the agents in combination by the MIC of the agent alone. FICI ≤ 0.5 is synergistic, 0.5 < x ≤ 4 is additive, and >4 is antagonistic.

MSSE 81388 [10] = type: cell-based, Staphylococcus epidermidis
Protocol: as §3

E. faecalis ATCC 29212 = type: cell-based, Enterococcus faecalis
Protocol: as §3

E. faecium ATCC 27270 = type: cell-based, Enterococcus faecium
Protocol: as §3

[11] = UTBLP in combination with novobiocin
[12] = UTBLP in combination with rifampicin
[13] = novobiocin in combination with the UTBLP
[14] = rifampicin in combination with the UTBLP
[15] = UTBLP in combination with chloramphenicol
[16] = chloramphenicol in combination with the UTBLP
[17] = UTBLP alone, plate with chloramphenicol

Question: With `CCCCCCCC(=O)N[C@@H](CCCCN)C(=O)NCCCN(CCCNC(=O)[C@H](CCCCN)NC(=O)CCCCCCC)CC(=O)N[C@@H](CCCCN)C(N)=O` [UTBLP 1] as the molecule, how does the MIC (P. aeruginosa PAO1) read?
Answer: >128 µg/mL

Question: What about the MIC (E. coli ATCC 25922 [1]) of the same molecule?
Answer: >128 µg/mL

Question: And the MIC (MRSA ATCC 33592)?
Answer: 128 µg/mL (≈ 155 µM)

Question: What about the MIC (S. aureus ATCC 29213) of the same molecule?
Answer: 64 µg/mL (≈ 77.6 µM)

Question: What about the MIC [2] of the same molecule?
Answer: > 128 µg/mL

Question: And the MIC [3]?
Answer: 128 µg/mL (≈ 155 µM)

Question: And the MIC (E. coli 94393 [4])?
Answer: > 128 µg/mL

Question: What about the MIC (E. coli 94474) of the same molecule?
Answer: > 128 µg/mL

Question: And the MIC (E. cloacae 118564)?
Answer: > 128 µg/mL

Question: What about the MIC (K. pneumoniae 113250) of the same molecule?
Answer: > 128 µg/mL

Question: What about the MIC (MRSE 61589 [5]) of the same molecule?
Answer: 32 µg/mL (≈ 38.8 µM)

Question: What about the MIC (MSSE 81388 [6]) of the same molecule?
Answer: 32 µg/mL (≈ 38.8 µM)

Question: And the Interpretation (E. coli 94393 [7]; UTBLP + novobiocin)?
Answer: Synergy (FICI ≤ 0.5 is synergistic)

Question: What about the Interpretation (E. coli 94393 [7]; UTBLP + rifampicin) of the same molecule?
Answer: Synergy (FICI ≤ 0.5 is synergistic)

Question: What about the MICUTBLP (E. coli 94393 [7]; plate with novobiocin) of the same molecule?
Answer: > 128 µg/mL

Question: What about the MICUTBLP (E. coli 94393 [7]; plate with rifampicin) of the same molecule?
Answer: > 128 µg/mL

Question: What about the “MICUTBLP [MICcombo]” value (E. coli 94393 [7]; [11]) of the same molecule?
Answer: 8 µg/mL

Question: And the “MICUTBLP [MICcombo]” value (E. coli 94393 [7]; [12])?
Answer: 8 µg/mL

Question: And the “MICantibiotic [MICcombo]” value (E. coli 94393 [7]; [13])?
Answer: 0.5 µg/mL

Question: What about the “MICantibiotic [MICcombo]” value (E. coli 94393 [7]; [14]) of the same molecule?
Answer: 0.031 µg/mL

Question: What about the Interpretation (E. coli ATCC 25922 [8]; UTBLP + chloramphenicol) of the same molecule?
Answer: Synergy (FICI ≤ 0.5 is synergistic)

Question: And the Interpretation (E. coli ATCC 25922 [8]; UTBLP + niclosamide)?
Answer: Synergy (FICI ≤ 0.5 is synergistic)

Question: What about the Interpretation (E. coli ATCC 25922 [8]; UTBLP + novobiocin) of the same molecule?
Answer: Synergy (FICI ≤ 0.5 is synergistic)

Question: What about the Interpretation (E. coli ATCC 25922 [8]; UTBLP + rifampicin) of the same molecule?
Answer: Synergy (FICI ≤ 0.5 is synergistic)

Question: And the MICUTBLP (E. coli ATCC 25922 [8]; plate with chloramphenicol)?
Answer: > 128 µg/mL

Question: What about the MICUTBLP (E. coli ATCC 25922 [8]; plate with niclosamide) of the same molecule?
Answer: > 128 µg/mL

Question: What about the MICUTBLP (E. coli ATCC 25922 [8]; plate with novobiocin) of the same molecule?
Answer: > 128 µg/mL

Question: What about the MICUTBLP (E. coli ATCC 25922 [8]; plate with rifampicin) of the same molecule?
Answer: > 128 µg/mL

Question: What about the “MICUTBLP [MICcombo]” value (E. coli ATCC 25922 [8]; [15]) of the same molecule?
Answer: 32 µg/mL

Question: What about the “MICUTBLP [MICcombo]” value (E. coli ATCC 25922 [8]; UTBLP in combination with niclosamide) of the same molecule?
Answer: 8 µg/mL

Question: And the “MICUTBLP [MICcombo]” value (E. coli ATCC 25922 [8]; [11])?
Answer: 8 µg/mL

Question: What about the “MICUTBLP [MICcombo]” value (E. coli ATCC 25922 [8]; [12]) of the same molecule?
Answer: 8 µg/mL

Question: What about the “MICantibiotic [MICcombo]” value (E. coli ATCC 25922 [8]; [16]) of the same molecule?
Answer: 1 µg/mL

Question: What about the “MICantibiotic [MICcombo]” value (E. coli ATCC 25922 [8]; niclosamide in combination with the UTBLP) of the same molecule?
Answer: 0.5 µg/mL

Question: What about the “MICantibiotic [MICcombo]” value (E. coli ATCC 25922 [8]; [13]) of the same molecule?
Answer: 0.25 µg/mL

Question: What about the “MICantibiotic [MICcombo]” value (E. coli ATCC 25922 [8]; [14]) of the same molecule?
Answer: 0.125 µg/mL

Question: And the Interpretation (MRSE 61589 [9]; UTBLP + chloramphenicol)?
Answer: Additive (0.5 < x ≤ 4 is additive)

Question: What about the MICUTBLP (MRSE 61589 [9]; [17]) of the same molecule?
Answer: 32 µg/mL

Question: What about the “MICUTBLP [MICcombo]” value (MRSE 61589 [9]; [15]) of the same molecule?
Answer: 16 µg/mL

Question: What about the “MICchloramphenicol [MICcombo]” value (MRSE 61589 [9]; [16]) of the same molecule?
Answer: 2 µg/mL

Question: And the Interpretation (MSSE 81388 [10]; UTBLP + chloramphenicol)?
Answer: Additive (0.5 < x ≤ 4 is additive)

Question: And the MICUTBLP (MSSE 81388 [10]; [17])?
Answer: 32 µg/mL

Question: What about the “MICUTBLP [MICcombo]” value (MSSE 81388 [10]; [15]) of the same molecule?
Answer: 0.25 µg/mL

Question: And the “MICchloramphenicol [MICcombo]” value (MSSE 81388 [10]; [16])?
Answer: 4 µg/mL

Question: What about the Interpretation (E. faecalis ATCC 29212; UTBLP + chloramphenicol) of the same molecule?
Answer: Additive (0.5 < x ≤ 4 is additive)

Question: And the MICUTBLP (E. faecalis ATCC 29212; [17])?
Answer: 128 µg/mL

Question: And the “MICUTBLP [MICcombo]” value (E. faecalis ATCC 29212; [15])?
Answer: 16 µg/mL

Question: And the “MICchloramphenicol [MICcombo]” value (E. faecalis ATCC 29212; [16])?
Answer: 2 µg/mL

Question: What about the Interpretation (E. faecium ATCC 27270; UTBLP + chloramphenicol) of the same molecule?
Answer: Additive (0.5 < x ≤ 4 is additive)

Question: And the MICUTBLP (E. faecium ATCC 27270; [17])?
Answer: 64 µg/mL

Question: What about the “MICUTBLP [MICcombo]” value (E. faecium ATCC 27270; [15]) of the same molecule?
Answer: 0.25 µg/mL

Question: And the “MICchloramphenicol [MICcombo]” value (E. faecium ATCC 27270; [16])?
Answer: 8 µg/mL

From paper PMC8963254, “Effects of Lysine N-ζ-Methylation in Ultrashort Tetrabasic Lipopeptides (UTBLPs) on the Potentiation of Rifampicin, Novobiocin, and Niclosamide in Gram-Negative Bacteria” (Antibiotics, 2022)
